Data as given in the supplement of paper PMC4862054.

Experiments:
Details in all cases: 72 h
DU-4475 [1] = tested on: DU-4475
Protocol: (§1)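 Drug sensitivity and resistance testing (DSRT) of breast cancer cell lines in 384-well plates, 5 concentrations in 10-fold dilutions over a compound-specific 10,000-fold range. After 72 h, cytotoxicity was read by CellTox Green fluorescence and viability by CellTiter-Glo luminescence (multiplexed), normalised to DMSO and benzethonium chloride controls. EC50 is the inflection point of the fitted dose-response curve (bottom asymptote free, so it can be relative for partial curves) and is censored at the highest tested concentration. Rows with DSS 0 (no meaningful response) were excluded.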

DU-4475 [2] = tested on: DU-4475; remark: listed apart in the source
How it was run: (§2)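 The plates used were 384-well plates holding compound at 5 concentrations in 10-fold steps across a compound-specific 10,000-fold range, into which breast cancer cell lines were seeded in 20 µl suspension. Following 72 h incubation, CellTox Green fluorescence was read at 485/520 nm, and CellTiter-Glo luminescence was read after 10 min at room temperature. Normalisation on each plate used 0.1 % DMSO and a positive kill control. Dose-response curves gave the EC50, which was censored at the top concentration.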

Hs578T [3] = tested on: Hs578T
How it was run: as §2

CAL-120 [4] = tested on: CAL-120
How it was run: as §2

HDQ-P1 [5] = tested on: HDQ-P1
How it was run: (§3)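 After 72 h on 384-well plates pre-loaded with compound in 5 µl medium, breast cancer cell lines seeded in 20 µl were assayed for viability with 2.5 µl CellTiter-Blue at 37 °C for 2 h, read at 560/590 nm. Each plate was quality-checked by Z'-factor and normalised to vehicle and a positive kill control. EC50 comes from the fitted percent-inhibition dose-response curve, censored at the top concentration, and rows scoring zero for drug sensitivity were left out.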

MFM-223 [6] = tested on: MFM-223
How it was run: as §3

SK-BR-3 [7] = tested on: SK-BR-3
How it was run: as §3

BT-474 [8] = tested on: BT-474
How it was run: as §3

MDA-MB-436 [9] = tested on: MDA-MB-436
How it was run: as §3

Hs578T [10] = tested on: Hs578T; remark: listed apart in the source
How it was run: as §3

BT-549 [11] = tested on: BT-549
How it was run: as §3

HCC1143 [12] = tested on: HCC1143
How it was run: as §3

HCC1937 [13] = tested on: HCC1937
How it was run: as §3

CAL-148 [14] = tested on: CAL-148
Protocol: as §1

MDA-MB-231 [15] = tested on: MDA-MB-231
How it was run: as §3

HCC1599 [16] = tested on: HCC1599
How it was run: as §3

CAL-120 [17] = tested on: CAL-120; remark: listed apart in the source
How it was run: as §3

MDA-MB-468 [18] = tested on: MDA-MB-468
How it was run: as §3

CAL-51 = tested on: CAL-51
How it was run: as §2

CAL-148 [19] = tested on: CAL-148; remark: listed apart in the source
How it was run: as §2

MCF-10A [20] = tested on: MCF-10A
How it was run: as §2

SK-BR-3 [21] = tested on: SK-BR-3; remark: listed apart in the source
How it was run: as §2

MDA-MB-453 = tested on: MDA-MB-453
How it was run: as §2

BT-474 [22] = tested on: BT-474; remark: listed apart in the source
How it was run: as §2

CAL-85-1 = tested on: CAL-85-1
How it was run: as §2

HCC1599 [23] = tested on: HCC1599; remark: listed apart in the source
How it was run: as §2

MDA-MB-436 [24] = tested on: MDA-MB-436; remark: listed apart in the source
How it was run: as §2

BT-549 [25] = tested on: BT-549; remark: listed apart in the source
How it was run: as §2

HCC1143 [26] = tested on: HCC1143; remark: listed apart in the source
How it was run: as §2

MDA-MB-468 [27] = tested on: MDA-MB-468; remark: listed apart in the source
How it was run: as §2

MFM-223 [28] = tested on: MFM-223; remark: listed apart in the source
Protocol: as §1

MCF-10A [29] = tested on: MCF-10A; remark: listed apart in the source
Protocol: as §1

HDQ-P1 [30] = tested on: HDQ-P1; remark: listed apart in the source
How it was run: as §2

MFM-223 [31] = tested on: MFM-223; remark: listed apart in the source
How it was run: as §2

MDA-MB-231 [32] = tested on: MDA-MB-231; remark: listed apart in the source
How it was run: as §2

HCC1937 [33] = tested on: HCC1937; remark: listed apart in the source
How it was run: as §2

| EC50, CellTiter-Blue viability (SK-BR-3 [7]) [nM] | EC50, CellTiter-Blue viability (MDA-MB-436 [9]) [nM] | EC50, CellTiter-Blue viability (BT-549 [11]) [nM] | EC50, CellTiter-Blue viability (HCC1143 [12]) [nM] | EC50, CellTiter-Blue viability (HCC1937 [13]) [nM] | EC50, CellTiter-Blue viability (MDA-MB-231 [15]) [nM] | EC50, CellTiter-Blue viability (HCC1599 [16]) [nM] | EC50, CellTiter-Blue viability (MDA-MB-468 [18]) [nM] | EC50, CellTiter-Glo (SK-BR-3 [21]) [nM] | EC50, CellTiter-Glo (MDA-MB-453) [nM] | EC50, CellTiter-Glo (BT-474 [22]) [nM] | EC50, CellTiter-Glo (HCC1599 [23]) [nM] | EC50, CellTiter-Glo (MDA-MB-436 [24]) [nM] | EC50, CellTiter-Glo (BT-549 [25]) [nM] | EC50, CellTiter-Glo (HCC1143 [26]) [nM] | EC50, CellTiter-Glo (MDA-MB-468 [27]) [nM] | EC50, CellTiter-Glo (MDA-MB-231 [32]) [nM] | EC50, CellTiter-Glo (HCC1937 [33]) [nM] | SMILES | EC50, CellTox Green (DU-4475 [1]) [nM] | EC50, CellTiter-Glo (DU-4475 [2]) [nM] | EC50, CellTiter-Glo (Hs578T [3]) [nM] | EC50, CellTiter-Glo (CAL-120 [4]) [nM] | EC50, CellTiter-Blue viability (HDQ-P1 [5]) [nM] | EC50, CellTiter-Blue viability (MFM-223 [6]) [nM] | EC50, CellTiter-Blue viability (BT-474 [8]) [nM] | EC50, CellTiter-Blue viability (Hs578T [10]) [nM] | EC50, CellTox Green (CAL-148 [14]) [nM] | EC50, CellTiter-Blue viability (CAL-120 [17]) [nM] | EC50, CellTiter-Glo (CAL-51) [nM] | EC50, CellTiter-Glo (CAL-148 [19]) [nM] | EC50, CellTiter-Glo (MCF-10A [20]) [nM] | EC50, CellTiter-Glo (CAL-85-1) [nM] | EC50, CellTox Green (MFM-223 [28]) [nM] | EC50, CellTox Green (MCF-10A [29]) [nM] | EC50, CellTiter-Glo (HDQ-P1 [30]) [nM] | EC50, CellTiter-Glo (MFM-223 [31]) [nM] |
| --- | --- | --- | --- | --- | --- | --- | --- | --- | --- | --- | --- | --- | --- | --- | --- | --- | --- | --- | --- | --- | --- | --- | --- | --- | --- | --- | --- | --- | --- | --- | --- | --- | --- | --- | --- | --- |
|  |  |  |  |  |  |  |  |  |  |  |  |  |  |  |  |  |  | CC(C)(C)c1nc(-c2cccc(NS(=O)(=O)c3c(F)cccc3F)c2F)c(-c2ccnc(N)n2)s1 [Dabrafenib] | 224 | 60 | > 2500 | 56.3 |  |  |  |  |  |  |  |  |  |  |  |  |  |  |
|  |  |  |  |  |  |  |  |  |  |  |  |  |  |  |  |  |  | CC(C)(C)NC(=O)[C@H]1CC[C@H]2[C@@H]3CC[C@H]4NC(=O)C=C[C@]4(C)[C@H]3CC[C@]12C [Finasteride] |  |  |  |  |  | 8260 |  |  |  |  |  |  |  |  |  |  |  |  |
| 11.8 | 22.2 | 19.1 | 9.03 | 20.5 | 4.41 | 233 | 13.5 | 12.8 | 47.6 | 32.1 | 18.4 | 9.55 | 5.01 | 9.33 | 6.86 |  |  | Nc1ccn([C@@H]2O[C@H](CO)[C@@H](O)C2(F)F)c(=O)n1 [Gemcitabine] |  | 20.7 | 26.9 | 87.3 |  | 673 |  | 9.36 | 9.69 | 9.03 | 12.5 | 12.8 | 39.9 | 18.5 |  |  |  |  |
| 24.5 | 96.8 | 91.5 | 91.5 | 5.47 | 79.6 | 945 | 53 | 185 | 750 | 404 | 466 | 134 | 144 | 531 | 152 | 286 | 665 | CC(=O)[C@]1(O)Cc2c(O)c3c(c(O)c2[C@@H](O[C@H]2C[C@H](N)[C@H](O)[C@H](C)O2)C1)C(=O)c1ccccc1C3=O [Idarubicin] |  | 193 | 281 | 580 | 277 | 263 | 116 | 93.8 | 31.9 | 42.2 | 49.1 | 125 | 455 | 252 | 806 | 642 | 837 | 470 |

| SMILES | EC50, CellTiter-Blue viability (SK-BR-3 [7]) [nM] | EC50, CellTiter-Blue viability (MDA-MB-436 [9]) [nM] | EC50, CellTiter-Blue viability (BT-549 [11]) [nM] | EC50, CellTiter-Blue viability (HCC1143 [12]) [nM] | EC50, CellTiter-Blue viability (HCC1937 [13]) [nM] | EC50, CellTiter-Blue viability (MDA-MB-231 [15]) [nM] | EC50, CellTiter-Blue viability (HCC1599 [16]) [nM] | EC50, CellTiter-Blue viability (MDA-MB-468 [18]) [nM] | EC50, CellTiter-Glo (SK-BR-3 [21]) [nM] | EC50, CellTiter-Glo (MDA-MB-453) [nM] | EC50, CellTiter-Glo (BT-474 [22]) [nM] | EC50, CellTiter-Glo (HCC1599 [23]) [nM] | EC50, CellTiter-Glo (MDA-MB-436 [24]) [nM] | EC50, CellTiter-Glo (BT-549 [25]) [nM] | EC50, CellTiter-Glo (HCC1143 [26]) [nM] | EC50, CellTiter-Glo (MDA-MB-468 [27]) [nM] | EC50, CellTiter-Glo (MDA-MB-231 [32]) [nM] | EC50, CellTiter-Glo (HCC1937 [33]) [nM] | EC50, CellTox Green (DU-4475 [1]) [nM] | EC50, CellTiter-Glo (DU-4475 [2]) [nM] | EC50, CellTiter-Glo (Hs578T [3]) [nM] | EC50, CellTiter-Glo (CAL-120 [4]) [nM] | EC50, CellTiter-Blue viability (HDQ-P1 [5]) [nM] | EC50, CellTiter-Blue viability (MFM-223 [6]) [nM] | EC50, CellTiter-Blue viability (BT-474 [8]) [nM] | EC50, CellTiter-Blue viability (Hs578T [10]) [nM] | EC50, CellTox Green (CAL-148 [14]) [nM] | EC50, CellTiter-Blue viability (CAL-120 [17]) [nM] | EC50, CellTiter-Glo (CAL-51) [nM] | EC50, CellTiter-Glo (CAL-148 [19]) [nM] | EC50, CellTiter-Glo (MCF-10A [20]) [nM] | EC50, CellTiter-Glo (CAL-85-1) [nM] | EC50, CellTox Green (MFM-223 [28]) [nM] | EC50, CellTox Green (MCF-10A [29]) [nM] | EC50, CellTiter-Glo (HDQ-P1 [30]) [nM] | EC50, CellTiter-Glo (MFM-223 [31]) [nM] |
| --- | --- | --- | --- | --- | --- | --- | --- | --- | --- | --- | --- | --- | --- | --- | --- | --- | --- | --- | --- | --- | --- | --- | --- | --- | --- | --- | --- | --- | --- | --- | --- | --- | --- | --- | --- | --- |
| Cn1cc(C2=C(c3cn(C4CCN(Cc5ccccn5)CC4)c4ccccc34)C(=O)NC2=O)c2ccccc21 [Enzastaurin] | 667 | 129 | 857 | 418 | 5370 |  |  |  |  |  |  |  |  |  |  |  |  |  |  |  |  |  | 1000 | 642 | 1670 | 873 |  |  |  |  |  |  |  |  |  |  |
| O=C(O)CNC(=O)c1c(O)c2ccccc2n(Cc2ccccc2)c1=O [IOX-2] |  |  |  |  |  |  |  |  |  |  |  |  |  | > 50000 |  |  |  |  |  |  |  |  |  |  |  |  |  |  | 1020 |  |  |  |  |  |  |  |
